In one data set the target is HSA (Homo sapiens, UniProt P02768). The settings on record: standard ligands immobilised on the array; protein not named, HSA per Example 2 / Abb. 2.
Another data set has as its target CYP3A4 (Homo sapiens, UniProt P08684). The settings on record: standard ligands immobilised on the array; CYP3A4 per Example 3 / Abb. 3.

Consider five molecules from patent EP1439394A1, “Method and apparatus for etablishing ADME profiles in the early stage of develloppment of active substances” (priority 2002, dated 2004).

CYP3A4, sequence (P08684 whole entry): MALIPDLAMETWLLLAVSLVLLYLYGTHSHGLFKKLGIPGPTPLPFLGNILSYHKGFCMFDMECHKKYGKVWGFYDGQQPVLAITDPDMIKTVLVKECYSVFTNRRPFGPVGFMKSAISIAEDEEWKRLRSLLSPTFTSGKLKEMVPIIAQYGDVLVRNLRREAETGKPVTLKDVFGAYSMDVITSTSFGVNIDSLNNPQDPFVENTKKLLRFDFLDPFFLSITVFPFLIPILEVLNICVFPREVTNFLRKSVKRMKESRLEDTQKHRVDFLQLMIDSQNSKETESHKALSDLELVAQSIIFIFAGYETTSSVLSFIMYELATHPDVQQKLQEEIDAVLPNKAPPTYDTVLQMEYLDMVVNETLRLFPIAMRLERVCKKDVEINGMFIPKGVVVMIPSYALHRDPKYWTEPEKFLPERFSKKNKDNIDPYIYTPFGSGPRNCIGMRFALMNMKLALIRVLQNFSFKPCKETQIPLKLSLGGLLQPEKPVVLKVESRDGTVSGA
HSA, sequence (P02768 25-609): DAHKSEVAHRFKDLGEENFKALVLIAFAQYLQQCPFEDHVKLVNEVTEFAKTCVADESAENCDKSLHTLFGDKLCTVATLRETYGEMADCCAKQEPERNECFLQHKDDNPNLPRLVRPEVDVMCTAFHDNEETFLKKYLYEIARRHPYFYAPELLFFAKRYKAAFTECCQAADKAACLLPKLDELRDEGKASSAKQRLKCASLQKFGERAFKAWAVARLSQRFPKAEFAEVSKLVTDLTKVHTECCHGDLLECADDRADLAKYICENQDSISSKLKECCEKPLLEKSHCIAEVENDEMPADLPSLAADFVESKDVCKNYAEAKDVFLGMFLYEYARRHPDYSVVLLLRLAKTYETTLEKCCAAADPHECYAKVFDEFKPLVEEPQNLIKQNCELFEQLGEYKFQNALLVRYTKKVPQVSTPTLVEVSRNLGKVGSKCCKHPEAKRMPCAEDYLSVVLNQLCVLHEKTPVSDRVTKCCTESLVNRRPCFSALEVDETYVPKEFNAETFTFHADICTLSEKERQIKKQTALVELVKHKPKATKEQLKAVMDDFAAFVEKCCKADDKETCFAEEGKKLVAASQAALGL
Description for CYP3A4: (§1) Wird SPR als Detektionsmethode eingesetzt, ist es vorteilhaft, zunächst eine Messung des Microarrays ohne Lösung (Luftmessung) durchzuführen und danach eine Messung des Microarrays mit der Pufferlösung durchzuführen, in der anschließend das ADME relevante Biomolekül gelöst wird (Puffermessung). Anschliessend wird die Pufferlösung gegen eine Lösung des ADME relevanten Biomoleküls in demselben Puffer ausgetauscht und nochmals gemessen (Proteinmessung). Die Puffermessungen und die Proteinmessungen werden mittels der Luftmessung normiert und anschließend wird die Differenz zwischen den beiden Minima der Proteinmessung und der Puffermessung ermittelt.
(§2) Die so ermittelte Verschiebung (in nm) zwischen den beiden (ggf. normierten) Messungen ist ein Maß für die Bindungsstärke zwischen den immobilisierten Liganden und dem ADME relevanten Biomolekül (s. Beispiel 1).
Die Verschiebung der Wellenlänge wurde nach 120 min aufgezeichnet. Durch die eindeutige Zuordnung der (x,y)-Koordinate zu einer bestimmten Verbindung ist diese eindeutig identifizierbar.
3 gezeigten Standardliganden und deren Festphasenscreening gegen CYP3A4 eine Klassifizierung in sehr schwach (<1,6 nm), schwach (1,6-3,2 nm), mittel (3,2-4,8 nm), stark (4,8-6,4 nm) und sehr stark (>6,4 nm) durchgeführt. Anhand der bekannten Metabolismuseigenschaften der Standardliganden ist eine Zuordnung dieser ADME Eigenschaft für nicht bekannte Wirkstoffvorstufen möglich.
Description for HSA: as §1, §2
Anschließend wurde der Chip je dreifach in 1. Methanol/1%TFA, 2. H2O/0,1% TFA und 3. H2O/0,02M HOAc gewaschen sowie unter Stickstoffstrom getrocknet.
Alle Verbindungen weisen eine Carboxy-Funktionalität auf, die mit einem Amin umgesetzt wurden, das endständig eine Thiolgruppe zur Anbindung an die Maleimid-Kopfgruppe des Ankers trägt.
Die Wirkstoffvorstufen, die so auf die Oberfläche gebracht werden, sind in einer 40 µM Lösung aus 0,2 M Phosphatpuffer (Pi), 5 mM EDTA und 20% (v/v) EG, pH 7.0, gelöst. Das Pinning Tool setzt ca. 10 nl pro Spot ab, so daß in jedem Spot ein hoher Überschuß des Wirkstoffvorstufen-Tag Konjugates gegenüber der oberflächengebundenen Maleimid-Gruppe gewährleistet wird und somit eine vollständige Belegung der Maleimid-Gruppen erreicht werden kann. In den freien Bereichen wurden die Maleimid-Gruppen anschließend durch Inkubation des Chips in 0,2 M Pi, pH 7.0, 10mM Mesh für 30 min abgesättigt. Danach wurde je dreimal mit 1. H2O/0,02M HOAc, 2. MeOH/H2O und 3. 2-Propanol gewaschen sowie unter Stickstoffstrom getrocknet.
Die Verschiebung der Wellenlänge wurde nach 120 min aufgezeichnet. Durch die eindeutige Zuordnung der (x,y)-Koordinate zu einer bestimmten Verbindung ist diese eindeutig identifizierbar. Wirkstoffvorstufen mit hohen Verschiebungswerten sind kritisch im Hinblick auf die weitere Wirkstoffentwicklung.
Das Festphasenscreening wurde durchgeführt wie in Beispiel 1 beschrieben.

With `C=C[C@H]1C[N@@]2CC[C@H]1C[C@@H]2[C@@H](O)c1ccnc2ccc(OC)cc12` [Chinidin], the “Klassifizierung der Standardliganden für die Bestimmung von Distributionsparametern” value at HSA is recorded as “schwach (schwach (0,7-1,4 nm))”.

`C=C[C@H]1C[N@@]2CC[C@H]1C[C@H]2[C@H](O)c1ccnc2ccc(OC)cc12` [Chinin]: the “Klassifizierung der Standardliganden für die Bestimmung von Distributionsparametern” value on HSA was “schwach (schwach (0,7-1,4 nm))”.

In the case of `CNCCCN1c2ccccc2CCc2ccccc21` [Desimpramin], the “Klassifizierung der Standardliganden für die Bestimmung von Distributionsparametern” value on HSA was “mittel (mittel (1,4-2,1 nm))”. Also, on CYP3A4, the “Klassifizierung der Standardliganden für die Bestimmung von Metabolismusparametern” value is reported as “schwach (schwach (1,6-3,2 nm))”.

Turning to `CNCCC=C1c2ccccc2CCc2ccccc21` [Nortriptylin], the “Klassifizierung der Standardliganden für die Bestimmung von Distributionsparametern” value on HSA is reported as “stark (stark (2,1-2,8 nm))”. At CYP3A4, the “Klassifizierung der Standardliganden für die Bestimmung von Metabolismusparametern” value is “schwach (schwach (1,6-3,2 nm))”.

Turning to `CC(=O)[C@H]1CC[C@H]2[C@@H]3CCC4=CC(=O)CC[C@]4(C)[C@H]3CC[C@]12C` [Progesteron], on CYP3A4, the “Klassifizierung der Standardliganden für die Bestimmung von Metabolismusparametern” value is given as “sehr stark (sehr stark (>6,4 nm))”.
